Laboratory results from patent publication US8975235B2, “Lysophosphatidic acid receptor antagonists” (InterMune, Inc., priority 2011, dated 2015).
pEC50: −log10 of the molar value.

Target: Human LPA1 (Homo sapiens, UniProt Q92633)
Test: Beta-Arrestin based assay for human LPA1R antagonists (PathHunter)
Type: cell-based
Design: host or cells: CHO
Details: CHO cells stably expressing ProLink tagged human LPA1R; agonist LPA 0.5 micromolar
Experimental: Beta-Arrestin Based Assays for Human LPA1R Antagonists and Agonists
A CHO cell line stably expressing the ProLink™ tagged human LPA1R was obtained from DiscoverX Inc, Fremont, Calif. In this system, β-Arrestin was fused to an N-terminal deletion mutant of β-galactosidase (termed the enzyme acceptor or EA), the human LPA1R was fused to a smaller (42 amino acids) weakly complementing fragment termed ProLink™. […] Cell handling and assays were performed according to protocols specified in the PathHunter® assays kits (DiscoverX, Fremont, Calif.). Assays were performed in quadruplicate in white 384 well plates. End point luminescence data were plotted and fit to a 4 parameter logistic function to obtain IC50 values. For antagonist assays, an […] concentration of agonist (LPA) equal to 0.5 micromolar was used.

Chain of Human LPA1 (Q92633 whole entry): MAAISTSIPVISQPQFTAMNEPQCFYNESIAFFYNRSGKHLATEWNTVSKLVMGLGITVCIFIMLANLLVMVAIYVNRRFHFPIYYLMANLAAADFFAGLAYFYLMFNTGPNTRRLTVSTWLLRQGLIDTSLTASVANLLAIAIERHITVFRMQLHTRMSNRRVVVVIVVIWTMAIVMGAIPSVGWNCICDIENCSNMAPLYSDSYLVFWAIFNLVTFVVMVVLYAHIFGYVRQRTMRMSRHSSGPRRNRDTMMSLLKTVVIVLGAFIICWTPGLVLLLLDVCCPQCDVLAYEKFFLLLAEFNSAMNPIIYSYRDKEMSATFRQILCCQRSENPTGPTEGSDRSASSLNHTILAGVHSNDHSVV

pEC50, > 7.30:
Cc1nsc(-c2ccc(-c3ccc(C4(C(=O)O)CC4)cc3)cc2)c1NC(=O)O[C@H](C)c1cccc(Cl)c1 [Compound 198]
C[C@@H](OC(=O)Nc1c(-c2cc(F)c(-c3ccc(C4(C(=O)O)CC4)cc3)cc2F)cnn1C)c1ccccc1Cl [Compound 199]
C[C@@H](OC(=O)Nc1c(-c2cc(Cl)c(-c3ccc(C4(C(=O)O)CC4)cc3)cc2F)cnn1C)c1ccccc1Cl [Compound 202]
C[C@@H](OC(=O)Nc1c(-c2ccc(-c3ccc(C4(C(=O)O)CC4)cc3)c(F)c2)cnn1C)c1ccccc1 [Compound 203]
C[C@@H](OC(=O)Nc1c(-c2ccc(-c3ccc(C4(C(=O)O)CC4)cc3)cc2F)cnn1C)c1ccccc1 [Compound 204]
C[C@@H](OC(=O)Nc1c(-c2c(F)cc(-c3ccc(C4(C(=O)O)CC4)cc3)cc2F)cnn1C)c1ccccc1 [Compound 205]
C[C@@H](OC(=O)Nc1oncc1-c1ccc(-c2ccc(C3(C(=O)O)CC3)cc2)cc1)c1ccccc1 [Compound 206]
Cc1nsc(-c2ccc(-c3ccc(C4(C(=O)O)CC4)cc3)cc2)c1NC(=O)O[C@H](C)C1=C(Cl)CCCC1 [Compound 218]
CC(C)n1ncc(-c2ccc(-c3ccc(C4(C(=O)O)CC4)cc3)cc2)c1NC(=O)O[C@H](C)c1ccccc1 [Compound 220]
CCn1ncc(-c2ccc(-c3ccc(C4(C(=O)O)CC4)cc3)cc2)c1NC(=O)O[C@H](C)c1ccccc1 [Compound 221]
Cc1nsc(-c2ccc3c(c2)CCc2cc(C4(C(=O)O)CC4)ccc2-3)c1NC(=O)O[C@H](C)c1ccccc1 [Compound 245]
Cc1noc(-c2ccc3c(c2)CCc2cc(C4(C(=O)O)CC4)ccc2-3)c1NC(=O)O[C@H](C)c1ccccc1 [Compound 247]
Cc1noc(-c2ccc3c(c2)CCc2cc(C4(C(=O)O)CC4)ccc2-3)c1NC(=O)O[C@H](C)c1ccccc1Cl [Compound 248]
Cc1nsc(-c2ccc3c(c2)CCc2cc(C4(C(=O)O)CC4)ccc2-3)c1NC(=O)O[C@H](C)c1ccccc1Cl [Compound 249]
Cc1nsc(-c2ccc(-c3ccc(C4(C(=O)O)CC4)cc3)cc2)c1NC(=O)OC(C)c1ccccc1 (stereo not shown) [Compound 253]
Cc1noc(C#Cc2cc3sc(C4(C(=O)O)CC4)cc3s2)c1NC(=O)O[C@H](C)c1ccccc1 [Compound 255]

pEC50, 6.30 to 7.30:
C[C@@H](OC(=O)Nc1c(-c2ccc(-c3ccc(C4(C(=O)O)CC4)cc3)cc2)sc2ccccc12)c1ccccc1Cl [Compound 209]
C[C@@H](OC(=O)Nc1cnsc1-c1ccc(-c2ccc(C3(C(=O)O)CC3)cc2)cc1)c1ccccc1Cl [Compound 210]
C[C@@H](OC(=O)Nc1nsnc1-c1ccc(-c2ccc(C3(C(=O)O)CC3)cc2)cc1)c1ccccc1 [Compound 211]
Cc1nsc(-c2ccc(-c3ccc(C4(C(=O)O)CC4)cc3)cc2)c1NC(=O)O[C@@H](C)C1=C(Cl)CCCC1 [Compound 219]
Cc1nsc(-c2ccc(-c3ccc(C4(C(=O)O)CCOCC4)cc3)cc2)c1NC(=O)O[C@H](C)c1ccccc1 [Compound 243]
Cc1nsc(-c2ccc3c(c2)CCc2cc(C4(C(=O)O)CC4)ccc2-3)c1NC(=O)OCc1ccccc1 [Compound 246]
Cc1noc(C#Cc2ccc(C3(C(=O)O)CC3)cc2)c1NC(=O)O[C@H](C)c1ccccc1 [Compound 250]
Cc1nsc(-c2ccc(-c3ccc(C4(C(=O)O)CC4)cc3)nc2)c1NC(=O)O[C@H](C)c1ccccc1Cl [Compound 251]
Cc1nsc(-c2ccc(-c3ccc(C4(C(=O)O)CC4)cn3)cc2)c1NC(=O)O[C@H](C)c1ccccc1Cl [Compound 252]
Cc1noc(C#Cc2cc3sc(C(=O)O)cc3s2)c1NC(=O)O[C@H](C)c1ccccc1 [Compound 254]

pEC50, < 6.30:
C[C@@H](OC(=O)Nc1sc2ccccc2c1-c1ccc(-c2ccc(C3(C(=O)O)CC3)cc2)cc1)c1ccccc1 [Compound 207]
C[C@@H](OC(=O)Nc1oc2ccccc2c1-c1ccc(-c2ccc(C3(C(=O)O)CC3)cc2)cc1)c1ccccc1 [Compound 208]
C[C@@H](OC(=O)Nc1c(-c2ccc(-c3ccc(C4(C(=O)O)CC4)cc3)cc2)oc2nc(C(F)(F)F)ccc12)c1ccccc1 [Compound 212]
Cc1ccc2c(NC(=O)O[C@H](C)c3ccccc3)c(-c3ccc(-c4ccc(C5(C(=O)O)CC5)cc4)cc3)sc2n1 [Compound 214]
Cc1ccc2c(NC(=O)O[C@H](C)c3ccccc3)c(-c3ccc(-c4ccc(C5(C(=O)O)CC5)cc4)cc3)oc2n1 [Compound 215]
CC(OC(=O)Nc1n[nH]nc1-c1ccc(-c2ccc(C3(C(=O)O)CC3)cc2)cc1)c1ccccc1 (stereo not shown) [Compound 223]
C[C@@H](OC(=O)Nc1nn(C)nc1-c1ccc(-c2ccc(C3(C(=O)O)CC3)cc2)cc1)c1ccccc1 [Compound 225]
C[C@@H](OC(=O)Nc1nnn(C)c1-c1ccc(-c2ccc(C3(C(=O)O)CC3)cc2)cc1)c1ccccc1 [Compound 226]
Cc1nsc(-c2ccc(-c3ccc(C4(C(=O)O)CC4)cc3)cc2)c1NC(=O)O[C@@H](C)c1ccccc1 [Compound 236]
Cc1nsc(-c2ccc(-c3ccc(C4(C(=O)OC5OC(C(=O)O)C(O)C(O)C5O)CC4)cc3)cc2)c1NC(=O)O[C@H](C)c1ccccc1 (stereo partly shown) [Compound 238]
Cc1nsc(-c2ccc(-c3ccc(C4(C(=O)O)CC4)cc3)c3c2CCC3)c1NC(=O)O[C@H](C)c1ccccc1 [Compound 239]
Cc1nsc(-c2ccc(-c3ccc(C4(C(=O)O)CC4)cc3)cc2)c1NC(=O)OC1(c2ccccc2)CC1 [Compound 244]
O=C(O)Cc1ccc(C2CCN(C(=O)CCNC(=O)OCc3ccccc3)CC2)cc1 [Compound 256]
O=C(O)Cc1ccc(C2CCN(C(=O)[C@@H](Cc3ccccc3)NC(=O)OCc3ccccc3)CC2)cc1 [Compound 257]
CN(CC(=O)N1CCC(c2ccc(CC(=O)O)cc2)CC1)C(=O)OCc1ccccc1 [Compound 258]
O=C(O)Cc1ccc(N2CCN(C(=O)CCNC(=O)COc3ccccc3)CC2)cc1 [Compound 265]
O=C(O)Cc1ccc(N2CCN(C(=O)[C@@H](Cc3ccccc3)NC(=O)OCc3ccccc3)CC2)cc1 [Compound 266]
C[C@H](NC(=O)OCc1ccccc1)C(=O)N1CCN(c2ccc(CC(=O)O)cc2)CC1 [Compound 267]
O=C(O)Cc1ccc(N2CCN(C(=O)[C@@H](NC(=O)OCc3ccccc3)c3ccccc3)CC2)cc1 [Compound 268]
O=C(O)Cc1ccc(N2CCN(C(=O)CNC(=O)OCc3ccccc3)CC2)cc1 [Compound 269]
O=C(O)Cc1ccc(N2CCN(C(=O)CCCNC(=O)OCc3ccccc3)CC2)cc1 [Compound 270]
CN(CC(=O)N1CCN(c2ccc(CC(=O)O)cc2)CC1)C(=O)OCc1ccccc1 [Compound 271]
O=C(O)Cc1ccc(N2CCN(C(=O)[C@H](NC(=O)OCc3ccccc3)c3ccccc3)CC2)cc1 [Compound 272]
C[C@@H](NC(=O)OCc1ccccc1)C(=O)N1CCN(c2ccc(CC(=O)O)cc2)CC1 [Compound 273]
CCCC(=O)Nc1ccnc(-c2ccc(-c3ccc(CC(=O)O)cc3)cc2)c1 [reference compound]
CCCCC(=O)NCC(=O)c1ccc(-c2ccc(CC(=O)O)cc2)cc1 [reference compound]
CC(=O)Nc1ccnc(-c2ccc(-c3ccc(CC(=O)O)cc3)cc2)c1 [reference compound]
CCC(=O)Nc1ccnc(-c2ccc(-c3ccc(CC(=O)O)cc3)cc2)c1 [reference compound]
O=C(O)Cc1ccc(-c2ccc(-c3cc(NC(=O)C4CCCC4)ccn3)cc2)cc1 [reference compound]
CC(C)NC(=O)Nc1ccnc(-c2ccc(-c3ccc(CC(=O)O)cc3)cc2)c1 [reference compound]
CCCOC(=O)NCC(=O)c1ccc(-c2ccc(CC(=O)O)cc2)cc1 [reference compound]
CC(C)NC(=O)Nc1ncncc1-c1ccc(-c2ccc(CC(=O)O)cc2)cc1 [reference compound]
